Source: PubChem BioAssay AID248 (DTP/NCI, 2004)
Where “and” joins values, the source holds several entries; their conditions need not be identical. Identical values can stand only once. Inconclusive results and toxic doses are left out. Rule as the data show it: active = T/C of 150% or more; inactive = T/C below 125%.

Test system: L1210 leukemia ip in BDF1 mice, survival T/C
Experiment: NCI In Vivo Anticancer Drug Screen. Data for tumor model L1210 Leukemia (intraperitoneal) in B6D2F1 (BDF1) mice
Conditions: endpoint: mean survival time, higher = longer survival
Procedure, shortened: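 Each compound was tested against a transplantable tumor grown in mice. The endpoint was survival, with treated animals benchmarked against vehicle controls as a simple ratio.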

[1] = dose: 100.0 mg/kg/injection, schedule: Q04DX003 (ip), vehicle: saline with Tween-80
[2] = dose: 200.0 mg/kg/injection, schedule: Q04DX003 (ip), vehicle: saline with Tween-80
[3] = dose: 400.0 mg/kg/injection, schedule: Q04DX003 (ip), vehicle: saline with Tween-80
[4] = dose: 100.0 mg/kg/injection, schedule: Q04DX002 (ip), vehicle: saline with Tween-80
[5] = dose: 100.0 mg/kg/injection, schedule: Q01DX001 (ip), vehicle: Klucel (hydroxypropylcellulose) (HPC)
[6] = dose: 200.0 mg/kg/injection, schedule: Q01DX001 (ip), vehicle: Klucel (hydroxypropylcellulose) (HPC)
[7] = dose: 100.0 mg/kg/injection, schedule: Q04DX002 (ip), vehicle: Klucel (hydroxypropylcellulose) (HPC)
[8] = dose: 200.0 mg/kg/injection, schedule: Q04DX002 (ip), vehicle: Klucel (hydroxypropylcellulose) (HPC)
[9] = dose: 400.0 mg/kg/injection, schedule: Q04DX002 (ip), vehicle: Klucel (hydroxypropylcellulose) (HPC)
[10] = dose: 50.0 mg/kg/injection, schedule: Q01DX001 (ip), vehicle: carboxymethylcellulose (CMC)
[11] = dose: 100.0 mg/kg/injection, schedule: Q01DX001 (ip), vehicle: carboxymethylcellulose (CMC)
[12] = dose: 200.0 mg/kg/injection, schedule: Q01DX001 (ip), vehicle: carboxymethylcellulose (CMC)
[13] = dose: 12.5 mg/kg/injection, schedule: Q04DX002 (ip), vehicle: saline
[14] = dose: 25.0 mg/kg/injection, schedule: Q04DX002 (ip), vehicle: saline
[15] = dose: 50.0 mg/kg/injection, schedule: Q04DX002 (ip), vehicle: saline
[16] = dose: 100.0 mg/kg/injection, schedule: Q04DX002 (ip), vehicle: saline
[17] = dose: 200.0 mg/kg/injection, schedule: Q04DX002 (ip), vehicle: saline
[18] = dose: 400.0 mg/kg/injection, schedule: Q04DX002 (ip), vehicle: saline
[19] = dose: 400.0 mg/kg/injection, schedule: Q01DX001 (ip), vehicle: carboxymethylcellulose (CMC)
[20] = dose: 100.0 mg/kg/injection, schedule: Q01DX009 (ip), vehicle: saline with Tween-80
[21] = dose: 200.0 mg/kg/injection, schedule: Q01DX009 (ip), vehicle: saline with Tween-80

Measured: T/C

Cc1ccc(Cl)c(C(=O)C(Br)C(Br)c2ccccc2)c1 (stereo not given)
inactive: dose: 12.5 mg/kg/injection, schedule: Q01DX009 (ip), vehicle: saline with Tween-80 100 % of control | dose: 25.0 mg/kg/injection, schedule: Q01DX009 (ip), vehicle: saline with Tween-80 100 % of control | dose: 50.0 mg/kg/injection, schedule: Q01DX009 (ip), vehicle: saline with Tween-80 94 % of control and 100 % of control

FC(F)(F)c1cccc(B2OCCNCCO2)c1
inactive: [1] 106 % of control | [2] 95 % of control

OCC1OC(n2nc(Cl)c3ccccc32)C(O)C1O (stereo not given)
inactive: dose: 50.0 mg/kg/injection, schedule: Q01DX005 (ip), vehicle: other 105 % of control | dose: 100.0 mg/kg/injection, schedule: Q01DX005 (ip), vehicle: other 102 % of control | dose: 200.0 mg/kg/injection, schedule: Q01DX005 (ip), vehicle: other 102 % of control

CCCCOC(c1ccc2c(c1)OCO2)C(C)Br (stereo not given)
inactive: [1] 94 % of control | [2] 94 % of control | [3] 97 % of control

CCC[CH2][Sn]1([CH2]CCC)[O]OC(c2ccc(OC)cc2)[O]1 (stereo not given)
inactive: dose: 6.25 mg/kg/injection, schedule: Q01DX005 (sc), vehicle: olive oil, sesame oil, peanut oil 95 % of control | dose: 6.25 mg/kg/injection, schedule: Q01DX009 (sc), vehicle: olive oil, sesame oil, peanut oil 104 % of control and 88 % of control | dose: 12.5 mg/kg/injection, schedule: Q01DX005 (sc), vehicle: olive oil, sesame oil, peanut oil 106 % of control | dose: 12.5 mg/kg/injection, schedule: Q01DX009 (sc), vehicle: olive oil, sesame oil, peanut oil 104 % of control and 91 % of control | dose: 25.0 mg/kg/injection, schedule: Q01DX005 (sc), vehicle: olive oil, sesame oil, peanut oil 95 % of control | dose: 25.0 mg/kg/injection, schedule: Q04DX002 (sc), vehicle: olive oil, sesame oil, peanut oil 97 % of control | dose: 50.0 mg/kg/injection, schedule: Q04DX002 (sc), vehicle: olive oil, sesame oil, peanut oil 106 % of control | dose: 100.0 mg/kg/injection, schedule: Q04DX002 (sc), vehicle: olive oil, sesame oil, peanut oil 100 % of control

COc1cc2c(cc1OC)N=Cc1cccn1C2
inactive: dose: 25.0 mg/kg/injection, schedule: Q04DX002 (ip), vehicle: saline with Tween-80 94 % of control | dose: 50.0 mg/kg/injection, schedule: Q04DX002 (ip), vehicle: saline with Tween-80 97 % of control | [4] 90 % of control

CC(CCCN(CCCl)CCCl)Nc1ccnc2cc(Cl)ccc12 (stereo not given)
inactive: dose: 5.0 mg/kg/injection, schedule: Q01DX001 (ip), vehicle: saline 119 % of control | dose: 10.0 mg/kg/injection, schedule: Q01DX001 (ip), vehicle: saline 105 % of control

CC(CCC(=O)O)([N+](=O)[O-])[N+](=O)[O-]
inactive: [5] 98 % of control | [6] 102 % of control | dose: 400.0 mg/kg/injection, schedule: Q01DX001 (ip), vehicle: Klucel (hydroxypropylcellulose) (HPC) 98 % of control

O=C(COc1ccccc1)Nc1cccnc1
inactive: [5] 94 % of control | [6] 102 % of control

O=C(COc1ccc(Cl)c(Cl)c1)NCc1ccc([N+](=O)[O-])cc1
inactive: dose: 100.0 mg/kg/injection, schedule: Q04DX003 (ip), vehicle: Klucel (hydroxypropylcellulose) (HPC) 90 % of control | dose: 200.0 mg/kg/injection, schedule: Q04DX003 (ip), vehicle: Klucel (hydroxypropylcellulose) (HPC) 92 % of control | dose: 400.0 mg/kg/injection, schedule: Q04DX003 (ip), vehicle: Klucel (hydroxypropylcellulose) (HPC) 88 % of control

COc1cc(/C=N/NC(=O)c2ccccc2N)ccc1O
inactive: [7] 98 % of control | [8] 106 % of control | [9] 109 % of control

Nc1cc([N+](=O)[O-])cc([N+](=O)[O-])c1
inactive: [10] 109 % of control | [11] 118 % of control | [12] 113 % of control

CC/C(=C(\CC)c1ccc(OCCOS(C)(=O)=O)cc1)c1ccc(OCCOS(C)(=O)=O)cc1
inactive: [13] 97 % of control | [14] 101 % of control | [15] 94 % of control

CCOC(=O)CC(N)=O
inactive: [16] 111 % of control | [17] 96 % of control | [18] 104 % of control

Nc1cc(Br)cc2c1-c1ccc(Br)cc1C2
inactive: [10] 107 % of control | [11] 104 % of control | [12] 96 % of control | [19] 102 % of control

N#CCCN(Cc1ccccc1)C(=S)Nc1ccc(C(F)(F)F)cc1
inactive: [7] 100 % of control | [8] 100 % of control | [9] 100 % of control

CC(=O)Nc1ccccc1I
inactive: dose: 100.0 mg/kg/injection, schedule: Q01DX009 (ip), vehicle: Klucel (hydroxypropylcellulose) (HPC) 104 % of control | dose: 200.0 mg/kg/injection, schedule: Q01DX009 (ip), vehicle: Klucel (hydroxypropylcellulose) (HPC) 96 % of control | dose: 400.0 mg/kg/injection, schedule: Q01DX009 (ip), vehicle: Klucel (hydroxypropylcellulose) (HPC) 95 % of control

COC1OC2COC(c3ccccc3)OC2C(OC(=O)c2ccccc2)C1OC(=S)SCc1ccccc1 (stereo not given)
inactive: [13] 107 % of control | [14] 104 % of control | [15] 104 % of control

NS(=O)(=O)c1ccc(NC(=S)NC(=O)c2ccc(Cl)cc2Cl)cc1
inactive: [20] 89 % of control and 90 % of control | [4] 101 % of control and 92 % of control | [21] 96 % of control and 89 % of control | dose: 200.0 mg/kg/injection, schedule: Q04DX002 (ip), vehicle: saline with Tween-80 97 % of control and 90 % of control | dose: 400.0 mg/kg/injection, schedule: Q01DX009 (ip), vehicle: saline with Tween-80 93 % of control and 89 % of control | dose: 400.0 mg/kg/injection, schedule: Q04DX002 (ip), vehicle: saline with Tween-80 86 % of control and 92 % of control

CCCCCC(C)(C1=NC(C)(C)CC(C)O1)c1ccccc1 (stereo not given)
inactive: dose: 100.0 mg/kg/injection, schedule: Q01DX009 (ip), vehicle: saline sonified 93 % of control | dose: 200.0 mg/kg/injection, schedule: Q01DX009 (ip), vehicle: saline sonified 104 % of control | dose: 400.0 mg/kg/injection, schedule: Q01DX009 (ip), vehicle: saline sonified 93 % of control

CSc1cc(N)nc2n[nH]nc12
inactive: [5] 97 % of control | [6] 110 % of control

CCC(=O)Nc1cccc(OC(=O)NC(C)C)c1
inactive: [20] 95 % of control | [21] 90 % of control

Nc1nc2[nH]ncc2c(=O)[nH]1
inactive: [10] 104 % of control | [11] 107 % of control | [12] 93 % of control | [19] 96 % of control

COC(=O)C(COC1OC(COC(C)=O)C(OC(C)=O)C(OC(C)=O)C1NC(C)=O)NC(=O)OCc1ccccc1 (stereo not given)
inactive: dose: 50.0 mg/kg/injection, schedule: Q04DX002 (ip), vehicle: Klucel (hydroxypropylcellulose) (HPC) 91 % of control | [7] 98 % of control | [8] 88 % of control

O=c1ccc2c(Cl)cc(CN(CCO)CCO)cc2[nH]1
inactive: dose: 75.0 mg/kg/injection, schedule: Q01DX001 (ip), vehicle: saline 102 % of control | dose: 75.0 mg/kg/injection, schedule: Q04DX003 (ip), vehicle: saline 97 % of control | dose: 150.0 mg/kg/injection, schedule: Q01DX001 (ip), vehicle: saline 102 % of control | dose: 150.0 mg/kg/injection, schedule: Q04DX003 (ip), vehicle: saline 92 % of control | dose: 300.0 mg/kg/injection, schedule: Q01DX001 (ip), vehicle: saline 108 % of control

CCCOc1ccc(-c2nc(-c3ccc(N=Cc4ccc(N(CCCOS(C)(=O)=O)CCCOS(C)(=O)=O)cc4)cc3)cs2)cc1
inactive: [1] 91 % of control | [2] 86 % of control | [3] 89 % of control

C=CCNC(=S)Nc1cccc(C(C)O)c1 (stereo not given)
inactive: dose: 100.0 mg/kg/injection, schedule: Q01DX009 (ip), vehicle: saline 107 % of control | [16] 89 % of control | dose: 200.0 mg/kg/injection, schedule: Q01DX009 (ip), vehicle: saline 112 % of control | [17] 89 % of control | [18] 96 % of control
